Results reported in patent publication US6372779B1, “Anti-inflammatory compounds” (Ortho Pharmaceutical Corporation, priority 1997, dated 2002).

Key:
[1] = biological target: T1, human glucocorticoid receptor (hGR) (Homo sapiens, UniProt P04150); test: human glucocorticoid receptor binding assay (displacement of 3H triamcinolone acetonide); conditions: 1 μM
T1 construct: made in house; host or cells: Sf21 insect cells infected with baculovirus hGR, OR IM9 lymphoblast cell line (endogenous hGR)
T1 sequence (P04150 1-777): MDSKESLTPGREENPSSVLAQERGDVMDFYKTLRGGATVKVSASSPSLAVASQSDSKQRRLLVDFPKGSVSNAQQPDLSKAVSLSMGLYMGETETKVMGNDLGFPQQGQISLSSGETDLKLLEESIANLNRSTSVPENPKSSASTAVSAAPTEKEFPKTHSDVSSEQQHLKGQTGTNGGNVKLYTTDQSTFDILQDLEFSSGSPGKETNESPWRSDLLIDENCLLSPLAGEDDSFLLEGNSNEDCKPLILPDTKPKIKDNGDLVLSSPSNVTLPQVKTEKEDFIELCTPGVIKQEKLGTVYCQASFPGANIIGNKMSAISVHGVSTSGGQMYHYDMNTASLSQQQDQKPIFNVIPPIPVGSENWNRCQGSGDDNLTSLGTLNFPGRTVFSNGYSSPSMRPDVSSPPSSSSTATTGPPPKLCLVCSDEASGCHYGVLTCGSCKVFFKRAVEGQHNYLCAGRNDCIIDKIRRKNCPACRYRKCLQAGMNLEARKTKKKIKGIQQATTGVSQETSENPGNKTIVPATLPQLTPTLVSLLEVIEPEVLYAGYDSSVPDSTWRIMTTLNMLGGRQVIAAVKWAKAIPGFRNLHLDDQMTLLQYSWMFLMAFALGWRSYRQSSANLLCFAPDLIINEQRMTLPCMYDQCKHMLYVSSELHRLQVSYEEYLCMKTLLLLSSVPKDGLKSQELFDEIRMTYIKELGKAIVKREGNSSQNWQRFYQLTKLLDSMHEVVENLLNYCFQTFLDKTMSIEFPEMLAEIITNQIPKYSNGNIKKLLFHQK
Procedure: A human glucocorticoid receptor binding assay was carried out to determine the extent to which the compounds of this invention have the ability to bind to human glucocorticoid receptors. This binding ability may be indicative of the antiinflammatory activity of the compound. The test was carried out as follows.
Human glucocorticoid receptors were prepared from either insect cells (Sf21) infected with baculovirus hGR or from a lymphoblast cell line which expresses high levels of endogenous hGR (IM9). The receptor binding reactions, with or without test compounds, were set up in 96-well microtiter plates which were previously siliconized with SIGMACOTE™, a chlorinated organopolysiloxane in heptane. The binding components, 3(H) Triamcinolone acetonide (TAA), glycerol/molybdate-containing buffer and unlabeled compounds were added to the wells using a combination of BIOMEK laboratory automation system and repeat pipettes. After four hours of incubation, the samples were precipitated with polyethylene glycol and filtered through Whatman GFIF paper using a TOMTEK cell harvester. The filter mate with 96 samples were bound to a solid-phase scintillant and directly counted in a BETAPLATE counter. […] The activity of test compounds to displace 3(H) TAA binding to hGR is also expressed as percent inhibition at 1 μM.

[2] = test system: human progesterone receptor (hPR); test: human progesterone receptor binding assay (displacement of 3H R5020 promegestone)
Procedure: A human progesterone receptor binding assay was performed in order to determine selectivity of the compounds, as follows. Human progesterone receptors were prepared from either insect cells (SF21) infected with baculovirus hPR A, or from a breast cancer cell line, T47D, which expresses high levels of endogenous hPR. The receptor binding reactions, with or without test compounds, were set up in 96-well microtiter plates which were previously siliconized with SIGMACOTE. The binding components, 3(H) R5020 Promegestone, a high affinity ligand for the progesterone receptors, glycerollmolybdate-containing buffer and unlabeled compounds were added to the wells using a combination of BIOMEK laboratory automation system and repeat pipettes. After overnight incubation, the samples were precipitated with polyethylene glycol and filtered through Whatman GF/F paper using a TOMTEK cell harvester. The filter mate with 96 samples were bound to a solid-phase scintillant and directly counted in the BETAPLATE counter. Only those compounds that were active in the human glucocorticoid receptor assay set forth in Example 30 were used for progesterone receptor binding to determine cross-reactivity profiles, if any. The activity of test compounds to displace 3(H) R5020 binding to hPR is expressed as percent inhibition at the two concentrations, 10^−6 and 10^−5 Molar.

Structure (SMILES)	hGR, value given as % (% inhibition) [1]	hPR % inh 10 μM [2]
COc1ccccc1CC(=O)NCC(c1ccccc1)C(c1ccccc1)c1ccccc1 (centres unmarked) [Compound 5]	62%	
COc1ccccc1NC(=O)NCC(c1ccccc1)C(c1ccccc1)c1ccccc1 (centres unmarked) [Compound 51]	32%	
COc1ccccc1CC(=O)NCC(c1ccccc1)C1c2ccccc2-c2ccccc21 (centres unmarked) [Compound 67]	23%	
O=C(Cc1ccccc1Cl)NCC(c1ccccc1)C1c2ccccc2-c2ccccc21 (centres unmarked) [Compound 68]	46%	
O=C(Cc1ccccc1C(F)(F)F)NCC(c1ccccc1)C1c2ccccc2-c2ccccc21 (centres unmarked) [Compound 69]	15%	
COc1ccccc1CCC(=O)NCC(c1ccccc1)C1c2ccccc2-c2ccccc21 (centres unmarked) [Compound 70]	53%	
Cc1ccc(C(=O)NCC(c2ccccc2)C2c3ccccc3-c3ccccc32)s1 (centres unmarked) [Compound 72, N-(2-carbonyl-5-methylthiophene)-2-(9H-fluoreny-9-yl)-2-phenylethylamine]	33%	
CC(C)CC(=O)NCC1(c2ccccc2)CC1(c1ccccc1)c1ccccc1 (centres unmarked) [Compound 85]	68%	
O=C(NCC1(c2ccccc2)CC1(c1ccccc1)c1ccccc1)Nc1ccccc1F (centres unmarked) [Compound 93]	11%	
COc1ccccc1NC(=O)NCC1(c2ccccc2)CC1(c1ccccc1)c1ccccc1 (centres unmarked) [Compound 94]	13%	
O=C(NCc1ccccc1)NCC1(c2ccccc2)CC1(c1ccccc1)c1ccccc1 (centres unmarked) [Compound 95]	4%	
O=C(Cc1ccc(Cl)c(Cl)c1)NCC(c1ccc(I)cc1)C(c1ccccc1)c1ccccc1 (centres unmarked) [Compound 163]		44%
O=C(Cc1ccccc1F)NCC(c1ccc(I)cc1)C(c1ccccc1)c1ccccc1 (centres unmarked) [Compound 164]		40%
O=C(Cc1ccc(F)cc1)NCC(c1ccc(I)cc1)C(c1ccccc1)c1ccccc1 (centres unmarked) [Compound 165]		79%
O=C(Cc1ccc(C(F)(F)F)cc1)NCC(c1ccc(I)cc1)C(c1ccccc1)c1ccccc1 (centres unmarked) [Compound 166]		46%
O=C(Cc1cc(C(F)(F)F)cc(C(F)(F)F)c1)NCC(c1ccc(I)cc1)C(c1ccccc1)c1ccccc1 (centres unmarked) [Compound 167]		63%

Structure (SMILES)	hGR, value given as % (% inhibition) [1]	hPR % inh 10 μM [2]
COc1ccccc1CC(=O)NCC(c1ccc(I)cc1)C(c1ccccc1)c1ccccc1 (centres unmarked) [Compound 168]		32%
COc1cccc(CC(=O)NCC(c2ccc(I)cc2)C(c2ccccc2)c2ccccc2)c1 (centres unmarked) [Compound 169]		45%
COc1ccc(CC(=O)NCC(c2ccc(I)cc2)C(c2ccccc2)c2ccccc2)cc1 (centres unmarked) [Compound 170]		25%
COc1cc(CC(=O)NCC(c2ccc(I)cc2)C(c2ccccc2)c2ccccc2)cc(OC)c1 (centres unmarked) [Compound 171]		25%
O=C(NCC(c1ccc(I)cc1)C(c1ccccc1)c1ccccc1)c1ccccc1Cl (centres unmarked) [Compound 172]		32%
O=C(NCC(c1ccc(I)cc1)C(c1ccccc1)c1ccccc1)c1ccc(Cl)cc1 (centres unmarked) [Compound 173]		72%
O=C(NCC(c1ccc(I)cc1)C(c1ccccc1)c1ccccc1)c1ccc(Cl)c(Cl)c1 (centres unmarked) [Compound 174]		50%
O=C(NCC(c1ccc(I)cc1)C(c1ccccc1)c1ccccc1)c1ccccc1F (centres unmarked) [Compound 175]		65%
O=C(NCC(c1ccc(I)cc1)C(c1ccccc1)c1ccccc1)c1ccc(F)cc1 (centres unmarked) [Compound 176]		68%
O=C(NCC(c1ccc(I)cc1)C(c1ccccc1)c1ccccc1)c1ccc(C(F)(F)F)cc1 (centres unmarked) [Compound 177]		53%
O=C(NCC(c1ccc(I)cc1)C(c1ccccc1)c1ccccc1)c1cc(C(F)(F)F)cc(C(F)(F)F)c1 (centres unmarked) [Compound 178]		53%
O=C(NCC(c1ccc(I)cc1)C(c1ccccc1)c1ccccc1)c1cccs1 (centres unmarked) [Compound 179]		53%
Cc1ccc(C(=O)NCC(c2ccc(I)cc2)C(c2ccccc2)c2ccccc2)s1 (centres unmarked) [Compound 180]		57%
COc1ccccc1C(=O)NCC(c1ccc(I)cc1)C(c1ccccc1)c1ccccc1 (centres unmarked) [Compound 181]		41%
COc1cccc(C(=O)NCC(c2ccc(I)cc2)C(c2ccccc2)c2ccccc2)c1 (centres unmarked) [Compound 182]		15%
COc1cc(OC)cc(C(=O)NCC(c2ccc(I)cc2)C(c2ccccc2)c2ccccc2)c1 (centres unmarked) [Compound 183]		42%
